{"source": "patent US20230285435A1", "about": "“COMPOSITIONS AND METHODS FOR TREATING VIRAL INFECTIONS” (priority 2020, published 2023)", "key": {"[1]": {"system": "SARS-CoV2 in Calu-3 cells", "type": "cell-based"}, "[2]": {"system": "SARS-CoV2 infected Vero-E6 cells and human lung epithelial cells (Calu-3)", "type": "cell-based", "set-up": "inhibiting cytopathic effect (% of cells): dose or concentration left out as unconfirmed", "conditions": "for synergy with remdesivir (BLISS independence model, synergyfinder): in combination with remdesivir, synergy score >10 signifies synergy; for efficacy of the agent alone, in words: single agent"}}, "note": "Counter-ions that a name gives are not always drawn.", "data": [{"compound": "COC(=O)N[C@H](C(=O)N1CCC[C@H]1c1ncc(-c2ccc(-c3ccc(-c4cnc([C@@H]5CCCN5C(=O)[C@@H](NC(=O)OC)C(C)C)[nH]4)cc3)cc2)[nH]1)C(C)C", "note": "[Daclatasvir dihydrochloride]", "values": [{"measurement": "synergy in combination with remdesivir", "setting": "[1]", "result": "synergy"}]}, {"compound": "COC(=O)N[C@H](C(=O)N1CC2(CC2)C[C@H]1c1ncc(-c2ccc3c(c2)C(F)(F)c2cc(-c4ccc5nc(C6[C@H]7CC[C@H](C7)N6C(=O)[C@@H](NC(=O)OC)C(C)C)[nH]c5c4)ccc2-3)[nH]1)C(C)C", "note": "(stereo partly drawn) [Ledipasvir acetone]", "values": [{"measurement": "synergy in combination with remdesivir", "setting": "[1]", "result": "synergy"}]}, {"compound": "COC(=O)N[C@H](C(=O)N1CC2(CC2)C[C@H]1c1ncc(-c2ccc3c(c2)C(F)(F)c2cc(-c4ccc5nc([C@@H]6[C@H]7CC[C@H](C7)N6C(=O)[C@@H](NC(=O)OC)C(C)C)[nH]c5c4)ccc2-3)[nH]1)C(C)C", "note": "[Ledipasvir]", "values": [{"measurement": "synergy in combination with remdesivir", "setting": "[1]", "result": "synergy"}]}, {"compound": "COc1c(C)c2c(c(O)c1C/C=C(\\C)CCC(=O)O)C(=O)OC2", "note": "[Mycophenolic acid]", "values": [{"measurement": "synergy in combination with remdesivir", "setting": "[1]", "result": "synergy"}]}, {"compound": "COC(=O)N[C@H](C(=O)N1CCC[C@H]1C(=O)Nc1ccc([C@@H]2CC[C@@H](c3ccc(NC(=O)[C@@H]4CCCN4C(=O)[C@@H](NC(=O)OC)C(C)C)cc3)N2c2ccc(C(C)(C)C)cc2)cc1)C(C)C", "note": "[Ombitasvir]", "values": [{"measurement": "synergy in combination with remdesivir", "setting": "[1]", "result": "synergy"}]}, {"compound": "COC(=O)N[C@H](C(=O)N1CCC[C@H]1c1nc2cc([C@H]3CC[C@H](c4cc5nc([C@@H]6CCCN6C(=O)[C@@H](NC(=O)OC)[C@@H](C)OC)[nH]c5cc4F)N3c3cc(F)c(N4CCC(c5ccc(F)cc5)CC4)c(F)c3)c(F)cc2[nH]1)[C@@H](C)OC", "note": "[Pibrentasvir]", "values": [{"measurement": "synergy in combination with remdesivir", "setting": "[1]", "result": "synergy"}]}, {"compound": "COC[C@H]1C[C@@H](c2nc(-c3ccc4c(c3)COc3cc5c(ccc6nc([C@@H]7CC[C@H](C)N7C(=O)[C@@H](NC(=O)OC)C(C)C)[nH]c65)cc3-4)c[nH]2)N(C(=O)[C@H](NC(=O)OC)c2ccccc2)C1", "note": "[Velpatasvir]", "values": [{"measurement": "synergy with remdesivir (BLISS independence model, synergyfinder)", "setting": "[2]", "result": "strongest"}, {"measurement": "efficacy of the agent alone, in words", "setting": "[2]", "result": "modest efficacy"}, {"measurement": "inhibiting cytopathic effect (% of cells)", "setting": "[2]; velpatasvir alone (so in the source)", "result": 16, "unit": "%"}]}, {"compound": "CCC(CC)COC(=O)[C@H](C)N[P@](=O)(OC[C@H]1O[C@@](C#N)(c2ccc3c(N)ncnn23)[C@H](O)[C@@H]1O)Oc1ccccc1", "note": "[remdesivir]", "values": [{"measurement": "preventing a virus-caused pathology (% of cells)", "setting": "[2]; 300 nM remdesivir alone", "result": 7, "unit": "%"}, {"measurement": "efficacy of the agent alone, in words", "setting": "[2]", "result": "only active at high uM concentrations"}]}, {"compound": "Elbasvir", "values": [{"measurement": "synergy with remdesivir (BLISS independence model, synergyfinder)", "setting": "[2]", "result": "synergistic"}]}]}
